In patent publication US11046991B2, “Rapid preconcentration of viable bacteria using magnetic ionic liquid for PCR amplification and culture-based diagnostics” (priority 2017, dated 2021):

Tests used:
E. coli [1] = experiment: MIL-based extraction of viable E. coli, selective culture and colony enumeration; details: for visible colonies after back-extraction with LB media and culture on selective agar: aqueous solutions of 1.68×10^5 CFUs mL^−1
Protocol: For each cell extraction experiment, 2 mL of sterile LB media with 100 μg mL^−1 carbenicillin was inoculated with 0.5 μL of E. coli glycerol stock and incubated overnight at 37° C. and 225 rpm. The overnight culture was centrifuged at 2820 g for 8 min and the supernatant discarded. The cells were then vortexed for 15 s in 2 mL of deionized water and centrifuged once again at 2820 g for 8 min. Following a total of three washes, the cells were re-suspended in 1 mL of deionized water. The concentration of cells within the suspension was initially determined by measuring the optical density of the sample at 600 nm (OD600), where an OD600 equal to 1.000 represents 8×10^8 E. coli cells mL^−1. The bacterial suspension was diluted to an OD600 value of 0.021 (1.68×10^7 cells mL^−1), after which 10-fold serial dilutions were performed to yield the desired sample concentration. Since the sample concentrations were below the detection limit of the spectrophotometer, the final concentration of each sample (in CFUs mL^−1) was obtained using a plate counting method. Briefly, 15 μL of diluted cell suspension were mixed with 985 μL of LB media and vortexed for 3 min. A […] aliquot of the suspension was spread onto a selective LB agar plate with 100 μg mL^−1 carbenicillin and incubated overnight at 37° C. to obtain visible colonies.
(§1) A general schematic for the MIL-based cell extraction procedure is depicted in FIG. 10. In a 4 mL screw cap glass vial, a controlled volume (e.g., 10 μL) of MIL was added to 2 mL of diluted cell suspension and dispersed into microdroplets by vortex agitation for 15-120 s. Following the dispersive extraction, a 0.9 T magnetic field was applied to collect the cell-enriched MIL extraction phase. After the aqueous phase was decanted, the MIL was subjected to a static wash with 2 mL of deionized water to ensure that residual cell suspension was removed. The extracted E. coli was recovered from the MIL solvent by vortexing the MIL in 1 mL of LB media from 30 to 300 s. Following back-extraction, aliquots of the cell-enriched LB media were cultured on selective agar as well as analyzed by PCR.
To detect viable bacteria recovered from the MIL extraction solvent, a culture-based method selective for E. coli transformants was employed. Following MIL-based extraction, a 100 μL aliquot of the LB back-extraction solution was plated on LB agar containing 100 μg mL^−1 carbenicillin and incubated overnight at 37° C. Visible colonies were counted, tabulated, and compared to the colonies obtained for the sample prior to extraction. The enrichment factor (EF) from the MIL-based extraction was calculated by Equation 1, where CMIL is the concentration of CFUs within the MIL extraction phase and CS represents the concentration of CFUs in the bacterial suspension prior to extraction. EF=CMIL/CS Equation 1
To determine if MILs can extract viable E. coli cells, aqueous solutions of 1.68×10^5 CFUs mL^−1 were extracted with each of the seven MILs using an approach that is similar to one depicted in FIG. 10. […] [Co(hfacac)3^−] MILs with the greatest number of colonies obtained from the Ni(II)-based MIL extractions.

E. coli [2] = experiment: Direct PCR amplification of cell-enriched MIL phase; details: 0.5 μL cell-enriched MIL phase directly in PCR mixture
Protocol: Nucleic acid-based methods (e.g., PCR) have become increasingly popular for the detection of pathogens in food, environmental, and clinical samples to increase sample throughput and achieve lower detection limits. […] [Co(hfacac)3^−] MIL under optimized conditions. After extraction, 0.5 μL of the cell-enriched MIL phase was directly transferred into the PCR reagent mixture and heated at 95° C. for 5 min to induce cell lysis and the release of nucleic acids into solution. […] While the direct PCR detection modality provided a rapid assay for the detection of E. coli, the method was only suitable for the detection of relatively large quantities of cells (approximately 10^7 CFUs mL^−1) in aqueous samples likely due to inhibition caused by the MIL.

[3] = Solubility of MILs in organic solvents (solvent miscibility); format: physicochemical; details: S with footnotes b-e: organic solvents and water, MIL to solvent ratio
Description: Owing to their unique solvation capabilities and high thermal stability, ILs have been successfully employed in organic synthesis either as reaction media or catalysts. An evaluation of the hydrophobic MIL solubility in a wide range of organic solvents may provide a fundamental understanding into their solvent properties. This could be instrumental for designing MIL-based reaction media, where the MIL can be selectively separated from the reaction products using an external magnetic field. […] The transition-metal based […] fully miscible in all of the organic solvents except DMSO. […] However, as the polarity value of the solvent drops below 0.117, the transition-metal based MILs show decreased solubilities at a 10% (v/v) MIL to solvent ratio. […] The solubility of these MILs in many different organic solvents adds to their versatility and use in numerous applications.

[4] = Viscosity, cone and plate viscometer; format: physicochemical; details: 23.7° C.
Protocol: Proton NMR spectra (^1H) were recorded using a Bruker 500 MHz nuclear magnetic resonance spectrometer. Solvent peaks were used as reference values for the reporting of chemical shifts. Elemental analyses were obtained using a Perkin Elmer 2100 Series II CHN/S Analyzer (Waltham, Mass., USA). Mass spectra were obtained using an Agilent 6230 TOF LC/MS (Santa Clara, Calif., USA). Viscosity measurements were obtained using a Wells/Brookfield DV1 cone and plate viscometer using a CPA-51Z cone spindle. Each MIL was dried in a vacuum oven for 48 hours at 50° C. ensuring any water or residual solvents were completely removed from the MILs. Sample volumes of 0.5 mL were used for all MILs at a temperature (23.7° C.).

[5] = Magnetic susceptibility, SQUID magnetometer; format: physicochemical
Protocol: The μeff values for each exemplary MIL were determined using a Quantum Design MPMS SQUID magnetometer following procedures similar to those previously reported. (Y. Mudryk, P. Manfrinetti, V. Smetana, J. Liu, M. L. Fornasini, A. Provino, V. K. Pecharsky, G. J. Miller and K. A. Gschneidner, J. Alloys Compd, 2013, 557, 252-260).

E. coli K12 cells = format: cell-based
Protocol: Since culture-based methods are contingent upon the isolation of viable bacteria, the detection of E. coli following MIL-based cell extraction is influenced by the cytotoxicity of MILs. To study the effect of MILs on the growth of E. coli, a 1 mL aliquot of LB media was inoculated with 8.0×10^2±0.5×10^2 CFUs mL^−1 and spiked with approximately 10 μL of a MIL. The mixture was agitated by vortex to simulate the recovery procedure after which a 100 μL aliquot of the suspension was plated on selective agar.

E. coli [6] = experiment: PCR amplification of LB back-extraction solution after MIL-based extraction
Protocol: as §1
Following the recovery of E. coli cells from the MIL extraction phase, an aliquot of the LB back-extraction solution was analyzed by PCR. […] The thermal protocol used for amplification of the MTAP gene was as follows: 5 min initial denaturation at 95° C. followed by 30 cycles of 30 s denaturation at 95° C., 45 s annealing at 54° C., and elongation for 45 s at 72° C.
After thermal cycling, the PCR products were mixed with 10 μL of bromophenol blue tracking dye solution (30% glycerol v/v) and loaded on a 1% agarose gel stained with SYBR Safe DNA gel stain. The PCR amplicon was subjected to electrophoresis at approximately 4 V cm^−1 and subsequently visualized using a transilluminator.
To improve detection limits, cells were recovered from the MIL phase using […] and a 1 μL aliquot of LB media was analyzed by PCR amplification. […] MILs as extraction media.
MIL. […] 1999; 37:2479-82). It should be noted that PCR assays are unable to distinguish between live and dead cells and, therefore, are complementary to microbiological culture for the determination of viable cells in a sample.

[7] = 1 second vial inversion (viscosity comparison); format: physicochemical; details: 1 second inversion of each MIL
Description: FIG. 2 compares the viscosities of [P66614^+]2[MnCl4^2−], [P66614^+][Ni(hfacac)3^−], and [P66614^+][Nd(hfacac)4^−] by performing a 1 second inversion of each MIL.

E. coli [8] = experiment: MIL-based extraction of viable E. coli, selective culture and colony enumeration; details: extraction time 30 s to 300 s

For `CCCCCCCCCCCCCC[P+](CCCCCC)(CCCCCC)CCCCCC.O=C(C=C([O-])C(F)(F)F)C(F)(F)F.O=C(C=C([O-])C(F)(F)F)C(F)(F)F.O=C(C=C([O-])C(F)(F)F)C(F)(F)F.[Co+2]` [[P66614^+] [Co(hfacac)3^−]], the “visible colonies after back-extraction with LB media and culture on selective agar” value (E. coli [1]) was “visible colonies were observed” and the “quantity of cells detectable by direct PCR” value (E. coli [2]) was “approximately 10^7 CFUs mL^−1”.
With `CCCCCCCCCCCCCC[P+](CCCCCC)(CCCCCC)CCCCCC` [compound 1] the Solubility [3] was “S^b,c,e”, the viscosity [4] was 575.8 cP and the “μeff, effective magnetic moment” value ([5]; from magnetic susceptibility data, SQUID) was 4.3 μB. For the same compound, the “Viable Bacteria” value (E. coli [1]; extraction of E. coli from aqueous samples, 1.68×10^5 CFUs mL^−1) was “No” and the “Cytotoxicity to E. coli” value (E. coli K12 cells) was “Yes”.
In the case of `CCCCCCCCCCCCCC[P+](CCCCCC)(CCCCCC)CCCCCC.O=C(C=C([O-])C(F)(F)F)C(F)(F)F.O=C(C=C([O-])C(F)(F)F)C(F)(F)F.O=C(C=C([O-])C(F)(F)F)C(F)(F)F.[Ni+2]` [MIL 3, [P66614^+] tris(hexafluoroacetylaceto)nickelate(II)], the viscosity [4] is reported as 927 cP, the μeff ([5]; at lower temperatures) is reported as 2.8 μB and the “change in EF with SOC media as back-extraction solution” value (E. coli [1]; 120 s back-extraction) is reported as “no change in the EF was observed”. For the same compound, the “enrichment factor (EF)” value (E. coli [1]; 120 s back-extraction in LB media, 30 s extraction) was 15.4±0.8, the “enrichment factor (EF)” value (E. coli [1]; MIL volume of 5 μL, cell suspension at 1.68×10^4 CFUs mL^−1) was 44.6±5.2 and the “visible colonies after back-extraction with LB media and culture on selective agar” value (E. coli [1]) was “visible colonies were observed”. For the same compound, the “colonies with deionized water or 10 mM Tris-HCl (pH 8) as back-extraction solution” value (E. coli [1]; culture on selective agar) was “no detectable colonies”, the “lowest E. coli concentration detected in aqueous solution” value (E. coli [1]; optimized conditions, viable cells, culture on selective agar) was 1.68×10^4 CFUs mL^−1 and the “influence on the growth of E. coli” value (E. coli K12 cells; LB media with 8.0×10^2 CFUs mL^−1, approximately 10 μL of MIL, compared to unexposed standard) was “little to no influence on the growth of E. coli”. The “amplicon after extraction of cell filtrate (cell-free DNA)” value (E. coli [6]) was “no amplicon was detected”, the “E. coli concentration at which bacterial pDNA was detected by PCR” value (E. coli [6]; cell recovery in LB media prior to PCR, 2 mL sample) was 1.68×10^4 CFUs mL^−1 and the “movement down the vial” value [7] was “flow easily toward the bottom of the vial”. The “enrichment factor (EF)” value (E. coli [8]) was “approximately 15”.
